Read-outs that look alike come from different tables or passages of the source.
Key:
NCI-H441 cells = assay: 3D cell proliferation assay (CellTiter Glo-3D), NCI-H441; type: cell-based, human; conditions: medium with 2% FBS, read-out: H441 AP IC50
Excerpt: MIA PaCa-2 cells were purchased from ATCC, Cat. No. CRL-1420; AsPC-1 cells were purchased from ATCC, Cat. No. CRL-1682; NCI-H441 cells were purchased from ATCC, Cat. No. HTB-174: NCI-H1975 cells were purchased from ATCC. Cat. No. CRL-5908; DMEM medium was purchased from Gibco, Cat. No. 11995-065: RPMI-1040 medium was purchased from Gibco. Cat. No. H 18754093; FBS was purchased from Gibco, Cat. No. 10099-141C. penicillin, streptomycin double-antibiotic solution (PS) was purchased from Gibco, Cat. No. 15140-122; Horse serum was purchased from Gibco. Cat. No. 16050130: trypsin (containing EDTA) was purchased from Gibco, Cat. No. 25200-072; DMSO was purchased from VWRAMRESCO, Cat. No. 0231-500ML; 384-well cell culture plates were purchased from Corning, Cat. No. 3830; white-bottomed, opaque 384-well assay plates were purchased from Corning, Cat. No. 3570. CellTiter Glo-3D) kit was purchased from Promega. Cat. No. G9683; cell counter was purchased from CHEMOMETEC, model: NC-200: microplate reader was purchased from PerkinElmer, model: EnVision.
MIA PaCa-2, a human pancreatic cancer cell strain endogenously containing a KRAS^G12C mutation, was cultured in a complete medium containing DMEM+10% FBS+2.5% Horse serum+1% PS. AsPC-1, a human pancreatic cancer cell strain endogenously containing a […] mutation, was cultured in a complete medium containing RPMI-1640+10% FBS+1% PS. NCI-H441 cells, a human lung cancer cell strain endogenously containing a […] mutation, were cultured in a complete medium containing RPMI-1640+10% FBS+1% PS. NCI-H1975, a KRAS wild-type human lung cancer cell strain whose cell proliferation depends on KRAS activity, was cultured in a complete medium containing RPMI-1640+10% FBS+1% PS.
The cells were digested with trypsin (containing EDTA), collected in their respective low-serum complete media containing 2% FBS (for MIA Paca-2 cell culture: DMEM+2% FBS+0.5% Horse serum+1% PS), and counted. After the cell density was adjusted as required, 200 MIA PaCa-2 cells, 800 AsPC-1 cells, 800 NCI-H441 cells, or 400 NCI-H1975 cells per well were seeded into a 384-well cell culture plate, with the volume of the medium in each well being 45 μL. The cell culture plate was incubated in an incubator at 37° C. with 5% CO2, overnight. A series of 3.16-fold gradient dilutions of a 1000× compound stock solution were prepared with DMSO, and then diluted 100-fold with the complete medium containing 2% FBS described above to give 10- compound stock solutions. On the day after cell seeding, 5 μL of the 10- compound stock solution was added to each cell culture well. As a result, the final concentration of the compound in the cell culture well became 1×, and the DMSO content in the well was 0.1%. In addition to the compound-treated wells described above, cell-containing DMSO control wells (with 5 μL of the complete medium containing 1% DMSO added to each well) and cell-free medium control wells (containing 50 μL of the complete medium with 2% FBS) were also set. The culture plate was incubated in an incubator at 37° C. with 5% CO2 for another 5 days, and then 30 μL of CellTiter-Glo working solution was added to each well. The mixture was well mixed, incubated for 30 min, left to stand at room temperature for 30 min, and then transferred to a white-bottomed, opaque 384-well assay plate at 40 μL/well. The chemiluminescence values (RLU) were measured using a microplate reader, and the cell proliferation inhibition rate for each well was calculated: IR (%)=(RLUDMSO—RLUcompound)/(RLUDMSO−RLUblank)×100%, where RLUDMSO is the average RLU signal value from the DMSO control well samples, RLUblank is the average RLU signal value from the medium control well samples, and RLUcompound is the RLU signal value from the compound-treated well samples. […]

[1] = system: p-ERK in NCI-H441 cells (KRAS G12V mutation); assay: Cell p-ERK assay (HTRF) in NCI-H441 cells; type: cell-based, human; conditions: NCI-H441 cells, 3 h compound incubation, HTRF p-ERK T202/Y204; read-out: H441 p-ERK IC50
Procedure: AsPC-1 cells were purchased from ATCC, Cat. No. CRL-1682: NCI-H441 cells were purchased from ATCC, Cat. No. HTB-174: RPMI-1640 medium was purchased from Gibco, Cat. No. I1875-093: FBS was purchased from Gibco, Cat. No. 10099-141C: penicillin/streptomycin double-antibiotic solution (PS) was purchased from Gibco, Cat. No. 15140-122: trypsin (containing EDTA) was purchased from Gibco, Cat. No. 25200-072; DMSO was purchased from VWRAMRESCO, Cat. No. 0231-500ML; 96-well cell culture plates were purchased from Corning, Cat. No. 3599: white-bottomed, opaque 96-well plates were purchased from Cisbio, Cat. No. 66PL96025; Advance ERK phospho-T202/Y204 kit was purchased from Cisbio, Cat. No. 64AERPEH; cell counter was purchased from CHEMOMETEC, model: NC-200; microplate reader was purchased from PerkinElmer, model: EnVision.
AsPC-1, a human pancreatic cancer cell strain endogenously containing a KRAS^G12D mutation, was cultured in a complete medium containing RPMI-1640+10% FBS+1% PS. NCI-H441, a human non-small cell lung cancer cell strain endogenously containing a KRAS^G12V mutation, was cultured in a complete medium containing RPMI-1640+10% FBS+1% PS.
The cells were digested with trypsin (containing EDTA), collected in their corresponding complete media, and counted. The density of the cell suspensions was adjusted with their corresponding complete media, and 10000 AsPC-1 cells or 20000 NCI-H441 cells per well were seeded into a 96-well cell culture plate, with the volume of the medium in each well being 80 μL.
The cell culture plate was incubated in an incubator at 37° C. with 5% CO2 overnight. A series of 3.16-fold gradient dilutions of a 1000- compound stock solution were prepared with DMSO, and then diluted 200-fold with the complete medium described above to give 5′ compound stock solutions. On the day after cell seeding, 20 μL of the 5× compound stock solution was added to each cell culture well. As a result, the final concentration of the compound in the cell culture well became 1×, and the DMSO content in the well was 0.1%. In addition to the compound-treated wells described above, cell-containing DMSO control wells were also set. A complete medium containing 0.5% DMSO was added at 20 μL/well. After the mixture was well mixed, the culture plate was incubated in the incubator at 37° C. with 5% CO2 for another 3 h. The medium was then removed from the culture wells, and 50 μL of cell lysis buffer (from Advance ERK phospho-T202,Y204 kit) was added to each well. The mixture was well mixed and incubated for 30 min. Then, 16 μL of the mixture was transferred to a white-bottomed, opaque 96-well assay plate, and separately, 16 μL of cell lysis buffer was added to additional wells (serving as blank wells) in the assay plate. After the transfer was completed, 4 μL of p-ERK HTRF antibody mixture (from Advance ERK phospho-T202/Y204 kit) was added to each well of the assay plate, followed by a 4-hour incubation. The HTRF signal values (RLU) were then measured using a microplate reader, and the inhibition rate of the compound against p-ERK levels was calculated as follows: IR (%)=(RLUDMSO−RLUcompound)/(RLUDMSO−RLUblank)×100%, where RLUDMSO is the average HTRF signal value from the DMSO control well samples, RLUblank is the average HTRF signal value from the blank well samples, and RLUcompound is the HTRF signal value from the compound-treated well samples. Using an XLfit software, the IR (%) values were plotted against the logarithm of the compound concentrations, and the dose-response curves were fitted using the four-parameter method to calculate the IC50 values.

[2] = 3D cell proliferation (CellTiter Glo-3D)
[3] = Homo sapiens, NCI-H441, 3D cell proliferation (CellTiter Glo-3D)

Compound	IC50 (NCI-H441 cells; [2]) [µM]	IC50 (NCI-H441 cells; [3]) [µM]	IC50 [1] [µM]
CNCCn1c(-c2cc(C#CCN3CCS(=O)(=O)CC3)cnc2[C@H](C)OC)c2c3cc(ccc31)-c1csc(n1)C[C@H](NC(=O)[C@H]1[C@H](C)[C@@H]1C)C(=O)N1CCC[C@H](N1)C(=O)OCC(C)(C)C2 (atropisomer, axis not shown; (Ra)) [Compound Z954, (1r,2R,3S)—N-((6^3S,4S,Z)-1^2-(5-(3-(1,1-dioxidodimorpholino)prop-1-yn-1-yl)-(Ra)-2-((S)-1-methoxyethyl)pyridin-3-yl)-10,10-dimethyl-1^1-(2-(methylamino)ethyl)-5,7-dioxo-6^1,6^2,6^3,6^4,6^5,6^6-hexahydro-1^1H-8-oxa-2-(4,2)-thiazola-1(5,3)-indola-6(1,3)-pyridazinacycloundecaphane-4-yl)-2,3-dimethylcyclopropane-1-carboxamide]	0.00233	–	–
CCn1c(-c2cc(C#CCN3CCCOCC3)cnc2[C@H](C)OC)c2c3cc(ccc31)-c1csc(n1)C[C@H](Nc1nnc3cc(I)ccn13)C(=O)N1CCC[C@H](N1)C(=O)OCC(C)(C)C2 (atropisomer, axis not shown; (Ra)) [Compound Z970, (6^3S,4S,Z)-1^2-(Ra)-(5-(3-(1,4-oxazepan-4-yl)prop-1-yn-1-yl)-2-((S)-1-methoxyethyl)pyridin-3-yl)-1^1-ethyl-4-((7-iodo-[1,2,4]triazolo[4,3-a]pyridin-3-yl)amino)-10,10-dimethyl-6^1,6^2,6^3,6^4,6^5,6^6-hexahydro-1^1H-8-oxa-2(4,2)-thiazola-1(5,3)-indola-6(1,3)-pyridazinacycloundecaphane-5,7-dione]	–	0.0072	–
CCn1c(-c2cc(C#CCN3CCCOCC3)cnc2[C@H](C)OC)c2c3cc(ccc31)-c1csc(n1)C[C@H](NC(=O)[C@H](C(C)C)N(C)[S@@](C)(=O)=NC)C(=O)N1CCC[C@H](N1)C(=O)OCC(C)(C)C2 (single isomer, unassigned) [Compound Z912-2]	0.00859	–	0.00341
CCn1c(-c2cc(OCCN3CC[S+]([O-])CC3)cnc2[C@H](C)OC)c2c3cc(ccc31)-c1csc(n1)C[C@H](NC(=O)[C@H]1[C@H](C)[C@@H]1C)C(=O)N1CCC[C@H](N1)C(=O)OCC(C)(C)C2 (atropisomer, axis not shown; (Sa)) [Compound Z600-1]	0.0963	–	0.0827
CCn1c(-c2cc(N3CCN(C)CC3)cnc2[C@H](C)OC)c2c3cc(ccc31)-c1csc(n1)C[C@H](N(C)C)C(=O)N1CCC[C@H](N1)C(=O)OCC(C)(C)C2 (atropisomer, axis not shown; (Ra)) [Compound Z458]	–	0.168	–
CCn1c(-c2cc(C#CCN3CCN(C(=O)CO)CC3)cnc2C(C)OC)c2c3cc(ccc31)-c1csc(n1)CC(Nc1nnc3cc(C)ccn13)C(=O)N1CCCC(N1)C(=O)OCC(C)(C)C2 [Compound Z982, (6^3S,4S,Z)-1^1-ethyl-1^2-(5-(3-(4-(2-hydroxyacetyl)piperazin-1-yl)prop-1-yn-1-yl)-2-((S)-1-methoxyethyl)pyridin-3-yl)-10,10-dimethyl-4-((7-methyl-[1,2,4]triazolo[4,3-a]pyridin-3-yl)amino)-6^1,6^2,6^3,6^4,6^5,6^6-hexahydro-1^1H-8-oxa-2(4,2)-thiazola-1(5,3)-indola-6(1,3)-pyridazinacycloundecaphane-5,7-dione]	0.00257	–	–
[2H]C([2H])([2H])O[C@@H](C)c1ncc(N2CCN3CCOC[C@@H]3C2)cc1-c1c2c3cc(ccc3n1CC)-c1csc(n1)C[C@H](NC(=O)[C@H]1[C@H](C)[C@@H]1C)C(=O)N1CCC[C@H](N1)C(=O)OCC(C)(C)C2 (atropisomer, axis not shown; (Sa)) [Compound Z74, (1r,2R,3S)—N-((6^3S,4S,Z)-1^1-ethyl-(Sa)-1^2-(5-((S)-hexahydropyrazino[2,1-c][1,4]oxazin-8(1H)-yl)-2-((S)-1-(methoxy-d3)ethyl)pyridin-3-yl)-10,10-dimethyl-5,7-dioxo-6^1,6^2,6^3,6^4,6^5,6^6-hexahydro-1^1H-8-oxa-2(4,2)-thiazola-1(5,3)-indola-6(1,3)-pyridazinacycloundecaphane-4-yl)-2,3-dimethylcyclopropane-1-carboxamide]	–	0.965	–
CCn1c(-c2cc(N3CCN(C)CC3)cnc2[C@H](C)OC)c2c3cc(ccc31)-c1csc(n1)C[C@H](Nc1ccon1)C(=O)N1CCC[C@H](N1)C(=O)OCC(C)(C)C2 (atropisomer, axis not shown) [Compound Z459]	–	0.0314	–
